Assay results published in patent US4239887A, “Pyridothienotriazines” (USV Pharmaceutical Corporation, priority 1979, dated 1980).

Legend:
[1] = test system: formation of a wheal (Rat Passive Cutaneous Anaphylaxis); experiment: Rat Passive Cutaneous Anaphylaxis (PCA) Screen, inhibition of wheal formation; type: in vivo; conditions: for ED50: oral (p.o.), rat PCA, read-out: ED50 (dose required to give 50% reduction in wheal size)
Description: The compounds of this invention have potent activity in inhibiting the formation of a wheal when screened according to the Rat Passive Cutaneous Anaphylaxis Screen as is described by I. Mota, Life Sciences, 7, 465 (1963) and Z. Ovary, et al., Proceedings of Society of Experimental Biology and Medicine, 81, 584 (1952).
The activities are given as ED50 values, which are the doses required to give 50% reductions in wheal size.

[2] = oral anti-allergy activity in standard tests; type: in vivo; conditions: standard tests for anti-allergy activity

Structure (SMILES)	ED50 [1]	anti-allergy activity (in words) [2]	inhibition of wheal size ([1]; tested at 25 mg/kg, p.o.)
Oc1nnnc2c1sc1nc(-c3ccccc3)ccc12 [7-phenyl, OH, 4-Hydroxy-7-phenylpyrido[3',2':4,5]thieno[3,2-d]-1,2,3-triazine]	0.74 mg/kg	–	–
Oc1nnnc2c1sc1ncccc12 [4-Hydroxy-pyrido[3',2':4,5]thieno[3,2-d]-1,2,3-triazine, reference compound]	–	essentially inactive	31%
Cc1cc(C)c2c(n1)sc1c(O)nnnc12 [7,9-diCH3, OH, 4-Hydroxy-7,9-dimethylpyrido[3',2':4,5]thieno[3,2-d]-1,2,3-triazine]	5.6 mg/kg	–	–
Cc1ccc2c(n1)sc1cnnnc12 [7-CH3, H, 7-Methylpyrido[3',2':4,5]thieno[3,2-d]-1,2,3-triazine]	1 mg/kg	–	–
Cc1ccc2c(n1)sc1c(O)nnnc12 [7-CH3, OH, 4-Hydroxy-7-methylpyrido[3',2':4,5]thieno[3,2-d]-1,2,3-triazine]	6 mg/kg	–	–
